Reference: patent US20080214398A1, “Herbicidal activities of combinations of sodium azide with sulfur containing and other deactivating compounds” (priority 2005, published 2008)
“Also recorded” adds a separate entry of the source. Read-outs that look alike come from different tables or passages of the source.

Legend:
[1] = tested on: annual morningglory (Ipomoea spp.); assay type: in vivo
Text: The effects on herbicidal activity of combinations of SEP 100 (Na azide) with metam Na, Na thiosulfate, methyl disulfide and the herbicide EPTC (Eptam 7E, Eradicane 6.7E) were studied in greenhouse experiments. In a first experiment SEP 100 was applied by drenching (1″ acre water) at 150 lbs a.i./A to pots (4 inch diam; PVC) containing each 2.2 pounds of silt loam (pH 6.2; org. matter <1.0%) from a cotton field. Immediately after treatment each pot was covered with a clear polyethylene bag (1.5 mil). The bags were removed 4 days after, and additional applications were drenched in with: Vapam HL, at 120 gal/A; EPTC at 8 and 10 lbs ai/A; Na thiosulfate at 200 and 300 lbs ai/A; and methyl disulfide at 300 lbs ai/A. Pots were again covered with the bags for 3 days after which they were removed and pots planted with annual morningglory (Ipomoea spp.; 25 seed/pot). Some pots received only SEP 100 and others received water only. Each treatment was represented by 7 pots (experimental units) arranged in a randomized complete block design on a bench. The number of plants in each pot was determined at 10, 13, and 26 days after application of SEP 100. Momingglory plant tops were collected from each pot 33 days after initiation of the experiment and their fresh weight was determined.

[2] = tested on: Morningglory (Ipomoea spp.); assay type: in vivo
Text: Compounds: Sodium azide, metam sodium (Vapam HL), EPTC, sodium thiosulfate, and methyl disulfide were delivered in aqueous solutions or emulsions (5% of SEP 100 for sodium azide; 5% for Vapam; 0.25% for EPTC, 2.5% for sodium thiosulfate; 2.5% for methyl disulfide) prepared immediately before use by diluting in demineralized water while stirring with a magnetic stirrer.
Sources: SEP 100 from American Pacific Corp., metam sodium as Vapam HL (32, 7% a.i.) from AMVAC, EPTC from Gowen, sodium thiosulfate and methyl disulfide from Aldrich.
Rates: Metam sodium at 163.5 mgs a.i./kg soil-equivalent to 0, and 327 lbs a.i./acre (120 gal Vapam HL/A). Sodium azide at 75 mgs a.i./kg soil equivalent to 150 lbs a.i./A, sodium thiosulfate at 200 and 300 lbs/A; EPTC at 8 and 10 lbs/A, and methyl disulfide at 300 lbs/A.
All different possible combinations of sodium azide with the other deactivating compounds and their corresponding rates were included in the experiment together with the appropriate controls.
Application Method and Procedure: Each treatment was delivered by drenching in 100 mls aqueous volume onto the soil surface in pots (10-cm diam; PVC) containing 1 kg soil. The soil was from a cotton field (silt loam; pH 6.2; CEC<10 meq/100 gm soil; org. matter <1.0%). Sodium azide was applied on day one, and the other compounds four days later. Immediately after treatment the pots were covered by a thick (1.5 mil) clear low density polyethylene bag held tight against the outer wall of the pot by a rubber band. Three days after application of “deactivator compounds” the bags were removed and the pots were planted with morningglory seed (25 seed/pot). Counts were taken from each pot (experimental unit) at 10, 13, and 26 days after application of sodium azide. Morningglory plant tops were collected from each pot 33 days after initiation of the experiment and fresh weights were determined.
Major Pests: Morningglory (Ipomoea spp.)
Experimental Design: Randomized complete block with seven replications/treatment.
Statistical Analyses: Anova and Fischer's least significant difference (flsd) at p 0.05. Regression analyses.

morningglory [3] = assay: Example 2 greenhouse pot experiment, fixed Vapam HL rate with SEP 100 rates; assay type: in vivo, Ipomoea spp.; details: Vapam HL 60 gal/A on soil treated with SEP 100 40-120 lbs a.i./A
Text: The effects on herbicidal activity of combinations of SEP 100 (Na azide) with metam Na, Na thiosulfate, methyl disulfide and the herbicide EPTC (Eptam 7E, Eradicane 6.7E) were studied in greenhouse experiments. In a first experiment SEP 100 was applied by drenching (1″ acre water) at 150 lbs a.i./A to pots (4 inch diam; PVC) containing each 2.2 pounds of silt loam (pH 6.2; org. matter <1.0%) from a cotton field. Immediately after treatment each pot was covered with a clear polyethylene bag (1.5 mil). […] The number of plants in each pot was determined at 10, 13, and 26 days after application of SEP 100. Momingglory plant tops were collected from each pot 33 days after initiation of the experiment and their fresh weight was determined.
A second experiment explored the interaction between a fixed rate of Vapam HL (60 gal/A) and applications of SEP 100 in the 40-120 lbs a.i./A range. The methods and procedure followed were as for the first experiment except that weed counts were taken at 13 and 17 days after application and plant top weights were determined 32 days after initiation of the experiment.

morningglory [4] = tested on: morningglory
Text: Compounds: sodium azide and metam sodium (Vapam HL) were delivered in aqueous solutions (1.0% of SEP 100 for sodium azide; 5% for Vapam) prepared immediately before use by diluting in demineralized water while stirring with a magnetic stirrer.
Source: SEP 100 from American Pacific Corp., and metam sodium as Vapam HL (32, 7% a.i.) from AMVAC.
Rates: Metam sodium at 0, and 82 mgs a.i./kg soil-equivalent to 0, and 60 gal/A. Sodium azide at 0, 20, 40 and 60 mgs a.i./kg soil equivalent to 0, 40, 80, and 120 lbs a.i./A, respectively. Each metam sodium rate was applied to soil in combination with each sodium azide dose.

warm season turf species = details: cited from earlier work
[5] = applied 4 days after sodium azide 150 lbs a.i./A, metam sodium 327 lbs a.i./acre, sodium thiosulfate 200 and 300 lbs/A, methyl disulfide 300 lbs/A, 10, 13, 26 days

SMILES: CCCN(CCC)C(=O)SCC [EPTC, S-ethyl dipropylthiocarbamate]
- herbicidal activity against morningglory ([1]; EPTC 8 and 10 lbs ai/A, SEP 100 150 lbs a.i./A): strongly herbicidal
- herbicidal activity against morningglory ([2]; EPTC 8 and 10 lbs/A, sodium azide 150 lbs a.i./A): strongly herbicidal

SMILES: CNC(=S)S [metam sodium, sodium methyl dithiocarbamate]
- effect on morningglory top weights (FIG. 2B) (morningglory [3]; 32 days): diminished herbicidal activity of sodium azide
- effect on herbicidal activity of Na azide (number of morningglory plants, FIG. 2A) (morningglory [3]; counts at 13 and 17 days): diminishes the herbicidal activity of sodium azide
- effect on morningglory top weights (morningglory [4]; metam sodium 60 gal/A on soil previously treated with sodium azide): synergistic beneficial effects
- effect on herbicidal activity of sodium azide (number of morningglory plants per pot, FIGS. 4A-4C) (morningglory [4]; metam sodium 60 gal/A with sodium azide 0, 40, 80, 120 lbs a.i./A, 13, 17, 30 days): nullified the herbicidal activity of sodium azide
- effect on herbicidal activity of sodium azide (number of morningglory plants per pot, FIGS. 3A-3C) [2, 5]: significantly reduced the herbicidal activity of sodium azide; also recorded: nullified the herbicidal activity of sodium azide
- morningglory growth / top weights (FIG. 3D) ([2]; sodium azide 150 lbs a.i./A, then metam sodium 327 lbs a.i./acre, 33 days): synergistic beneficial effects

SMILES: CSSC [methyl disulfide]
- effect on herbicidal activity of Na azide (number of morningglory plants, FIG. 1A) ([1]; applied 4 days after SEP 100 150 lbs a.i./A, Vapam HL 120 gal/A, Na thiosulfate 200 and 300 lbs ai/A, methyl disulfide 300 lbs ai/A, counts at 10, 13, 26 days): little effect
- effect on herbicidal activity of sodium azide (number of morningglory plants per pot, FIGS. 3A-3C) [2, 5]: inconclusive

SMILES: [N-]=[N+]=[N-] [sodium azide]
- plant back interval required for successful establishment (warm season turf species): 3-4 weeks

SMILES: O=S([O-])([O-])=S.[Na+].[Na+] [sodium thiosulfate]
- effect on herbicidal activity of Na azide (number of morningglory plants, FIG. 1A) ([1]; in vivo): little effect
- effect on herbicidal activity of sodium azide (number of morningglory plants per pot, FIGS. 3A-3C) ([2]; in vivo): inconclusive
